Tests used:
Serca2 gene = experiment: Serca2 mRNA induction in normal human epidermal keratinocytes (NHEK), Northern blotting; assay type: cell-based; details: for strength of Serca2 gene inducing action: comparison among inducers
Experimental: Normal human epidermal keratinocytes (NHEK) were cultured in a serum-free medium (KGM medium) from which only hydrocortisone was excluded. A test substance dissolved in dimethyl sulfoxide (DMSO) as a solvent was added to the medium and culture was continued, and amount of mRNA of Serca2 gene in the epidermal keratinocytes was quantified by Northern blotting after 3, 6, and 9 hours. […] RNA was extracted 0, 3, 6, 12, 18, 24, and 48 hours after the addition of WiN55,212-2 to the epidermal keratinocytes, and expression of Serca2 gene was observed by Northern blotting.
Test substances including various kinds of vanilloid agonists were examined in the same manner as that of Example 1.

ATP2A2 mRNA = ATP2A2 mRNA expression in epidermal keratinocytes of Darier's disease patients, Northern blotting; assay type: cell-based, human; details: keratinocyte cell lines of 3 Darier's disease patients, 6 hours after treatment, 10^−6 to 10^−9 mol
Experimental: Epidermal keratinocytes were collected from skins of pathological lesions of 3 Darier's disease patients, and cultured to establish cell lines. The cells were treated with WIN55,212-2 or a vanilloid agonist (dihomo-γ-linolenoyldopamine or eicosa-11Z,14Z-dienoyldopamine), and after 6 hours, RNAs were extracted and the expression of ATP2A2 mRNA was observed by Northern blotting. […] When the epidermal keratinocytes of the other two Darie's disease patients were used, similar results were obtained.

ATP2A protein [1] = experiment: ATP2A protein localization by immunostaining in skins of healthy persons transplanted to nude mice; assay type: in vivo; details: healthy human skin on nude mice, optimum concentration applied every day for 5 days
Text: Skins of healthy persons were transplanted to nude mice, and after one week under acceptance of graft, optimum concentrations of dihomo-γ-linolenoyldopamine, WIN55,212-2, DPTHF as a vanilloid antagonist, and DMSO (control) were each applied every day for 5 days. The skin samples where the application was made were fixed after biopsy, and localization of ATP2A protein was identified by immunostaining.

[2] = system: skin samples of healthy persons; experiment: Pathological changes by HE staining in skin samples of healthy persons under organ culture; assay type: cell-based; details: healthy human skin organ culture, optimum concentration, fixed after 24 to 48 hours
Experimental: Optimum concentrations of dihomo-γ-linolenoyldopamine, WIN55,212-2, DPTHF as a vanilloid antagonist, and DMSO (control) were each added to skin samples of healthy persons and kept under a state of organ culture in the same manner as in Example 3. The skin samples were fixed after 24 to 48 hours, and pathological changes were observed by HE staining.

[3] = system: three-dimensionally cultured skin model of Darie's disease patients' keratinocytes; experiment: Darie's disease model skin by three-dimensional culture; assay type: cell-based, human; details: added to the medium; keratinocytes with fibroblasts or interstitial components; 5 to 11 days
Experimental: In order to construct a model skin of Darie's disease which is readily reproducible and can be repetitively applied for assays, a […] model skin was constructed by three-dimensional culture of a combination of cultured epidermal keratinocytes and fibroblasts of Darie's disease patients, or three-dimensional culture of a combination of cultured epidermal keratinocytes Darie's disease patients and interstitial components. WIN55,212-2 or dihomo-γ-linolenoyldopamine was added to the medium of the above model skin to confirm the actions thereof. […] With the DMSO treatment as a control, individual keratinization and acantholysis remained, and pathological conditions corresponding to the pathological pictures of Darie's disease were observed.

[4] = system: skin samples of Darie's disease patients; experiment: Pathological examination of skin of Darie's disease patients transplanted to nude mice, applied 9 days; assay type: in vivo, human skin transplanted to nude mice; details: Darie's disease patient skin on nude mice, applied for 9 days in DMSO
Experimental: Skin samples of Darie's disease patients with an area of 1 to 2 cm square were transplanted to nude mice, and acceptance of graft was confirmed after 7 days. Thereafter WIN55,212-2 or dihomo-γ-linolenoyldopamine was applied for 5 to 9 days using dimethyl sulfoxide (DMSO) as a solvent, and effectiveness of the drugs was determined on the basis of pathological examinations. This method is effective for successful determination of efficacy of a drug under a condition closest to the affected patient's skin. […] Where a solvent (DMSO) was applied as the control, dyskeratosis, parakeratosis, and blistering remained, the granular layer remained disappeared, and pathological pictures of Darie's disease were observed even after the transplantation. It is considered that the medicament of the present invention has sufficient effectiveness on inflammatory keratosis such as psoriasis vulgaris, as well as on Darie's disease, because potent therapeutic effect that achieves successful recover of even the formation of normal granular layer was observed when the cannabinoid agonist was applied.

[5] = system: skin samples of Darie's disease patients; experiment: Pathological changes by HE staining in skin of Darie's disease patients transplanted to nude mice, applied 5 days; assay type: in vivo, human skin transplanted to nude mice; details: Darie's disease patient skin on nude mice, optimum concentration applied every day for 5 days
Text: Skin samples of Darie's disease patients were collected under informed consent of the patients, and transplanted to nude mice, and after one week under acceptance of graft, optimum concentrations of dihomo-γ-linolenoyldopamine, WIN55,212-2, and DMSO (control) were each applied to the skin samples every day for 5 days. The skins where the application was made were fixed after biopsy, and pathological changes were observed by HE staining.

ATP2A protein [6] = experiment: ATP2A protein localization by immunostaining in human skin under organ culture; assay type: cell-based; details: optimum concentration, fixed after 24 hours
Experimental: Human skin under a state of organ culture was added with optimum concentration of dihomo-γ-linolenoyldopamine or DMSO (control), and after 24 hours later, the skin was fixed, and then localization of ATP2A protein, which is the causative protein of Darie's disease, was identified by immunostaining.

[7] = vanilloid agonists, same manner as Example 1
[8] = synthetic cannabinoid agonists in DMSO, Northern blotting after 3, 6 and 9 hours

In the case of CCCCCCCCCC(=O)O[C@@H]1[C@@H](C)[C@@]2(O)[C@@H](C=C(CO)C[C@@]3(O)C(=O)C(C)=C[C@@H]23)[C@@H]2C(C)(C)[C@]12OC(=O)CCCCCCCCC [4-α-phorbol 12,13-didecanoate (4α-PDD), 4-α-phorbol 12,13-didecanoate], the “induction of Serca2 gene (mRNA)” value (Serca2 gene; [7]) is reported as “induced the Serca2 gene”.

For CC/C=C\C/C=C\C/C=C\C/C=C\C/C=C\C/C=C\CCC(=O)NCCc1ccc(O)c(O)c1 [docosahexaenoyldopamine], the “induction of Serca2 gene (mRNA)” value (Serca2 gene; [7]) was “induced the Serca2 gene”.

In the case of CC/C=C\C/C=C\C/C=C\C/C=C\C/C=C\CCCC(=O)NCCc1ccc(O)c(O)c1 [eicosapentaenoyldopamine], the “induction of Serca2 gene (mRNA)” value (Serca2 gene; [7]) is reported as “induced the Serca2 gene”.

For CCCCC/C=C\C/C=C\CCCCCCCCCC(=O)NCCc1ccc(O)c(O)c1 [eicosa-11Z,14Z-dienoyldopamine], the “strength of Serca2 gene inducing action” value (Serca2 gene; vanilloid agonists) was “potent inducing action”, the “induction of Serca2 gene (mRNA)” value (Serca2 gene; [7]) was “induced the Serca2 gene” and the “expression of ATP2A2 mRNA” value (ATP2A2 mRNA) was “concentration-dependent promotion of expression of ATP2A2 was observed”.

In the case of CCCCC/C=C\C/C=C\C/C=C\CCCCC(=O)NCCc1ccc(O)c(O)c1 [γ-linolenoyldopamine], the “strength of Serca2 gene inducing action” value (Serca2 gene; vanilloid agonists) is reported as “potent inducing action” and the “induction of Serca2 gene (mRNA)” value (Serca2 gene; [7]) is reported as “induced the Serca2 gene”.

With CCCCC/C=C\C/C=C\C/C=C\C/C=C\CCCC(=O)N[C@H](C)CO [methanandamide] the “induction of Serca2 gene (mRNA)” value (Serca2 gene; [8]) was “induction of Serca2 gene was induced”.

NCCOB(c1ccccc1)c1ccccc1 [2-aminoethoxydiphenyl borate (2-APB), 2-aminoethoxydiphenyl borate] was tested, and the “induction of Serca2 gene (mRNA)” value (Serca2 gene; [7]) was “induced the Serca2 gene”.

With CCCCC/C=C\C/C=C\C/C=C\CCCCCCC(=O)NCCc1ccc(O)c(O)c1 [dihomo-γ-linolenoyldopamine] the “localization/expression of ATP2A protein by immunostaining” value (from here on “localization/expression of ATP2A protein”) (ATP2A protein [1]) was “excessively advanced expression in the basal layer was observed”, the “strength of Serca2 gene inducing action” value (Serca2 gene; vanilloid agonists) was “potent inducing action” and the “induction of Serca2 gene (mRNA)” value (Serca2 gene; [7]) was “induced the Serca2 gene”. For the same compound, the “pathological changes by HE staining” value [2] was “remained in a state of physiological skin not distinguishable from healthy skins”, the “pathological pictures in three-dimensional model skin” value [3] was “recovery of three-dimensional skin having quality similar to that of healthy skin was observed” and the “pathological pictures (effectiveness by pathological examination)” value [4] was “dyskeratosis and blistering disappeared, and the granular layer also slightly recovered, but keratinization accompanied by parakeratosis slightly remained”. The “expression of ATP2A2 mRNA” value (ATP2A2 mRNA) was “concentration-dependent promotion of expression of ATP2A2 was observed”, the “pathological changes by HE staining” value [5] was “these pathological changes characteristic to Darie's disease disappeared” and the “localization/expression of ATP2A protein” value (ATP2A protein [6]) was “excessively advanced expression in the basal layer was observed”.

For Cc1c(C(=O)c2cccc3ccccc23)c2cccc3c2n1[C@H](CN1CCOCC1)CO3 [WIN55,212-2], the “localization/expression of ATP2A protein” value (ATP2A protein [1]) was “excessively advanced expression in the basal layer was observed”, the “induction of Serca2 gene (mRNA)” value (Serca2 gene; [8]) was “induction of Serca2 gene was induced” and the “pathological changes by HE staining” value [2] was “remained in a state of physiological skin not distinguishable from healthy skins”. The “pathological pictures in three-dimensional model skin” value [3] was “recovery of three-dimensional skin having quality similar to that of healthy skin was observed”, the “pathological pictures (effectiveness by pathological examination)” value [4] was “dyskeratosis, parakeratosis, and blistering were disappeared, and normal keratinization was observed with recovered granular layer” and the “expression of ATP2A2 mRNA” value (ATP2A2 mRNA) was “concentration-dependent promotion of expression of ATP2A2 was observed”. For the same compound, the “pathological changes by HE staining” value [5] was “these pathological changes characteristic to Darie's disease disappeared”.

With c1ccc(C2(c3ccccc3)CCCO2)cc1 [DPTHF, diphenyltetrahydrofuran] the “localization/expression of ATP2A protein” value (ATP2A protein [1]) was “decrease of expression of ATP2A2 was observed”, the “inducing action of vanilloid agonists on Serca2 gene expression when the vanilloid antagonist coexisted” value (Serca2 gene; coexisting with vanilloid agonists (FIG. 7: dihomo-γ-linolenoyldopamine+DPTHF)) was “disappeared” and the “pathological changes by HE staining” value [2] was “pathological images similar to those of Darie's disease such as individual keratinization and acantholysis were observed”.

With CCCCC/C=C\C/C=C\C/C=C\C/C=C\CCCCCC(=O)NCCc1ccc(O)c(O)c1 [docosatetra-7Z,10Z,13Z,16Z-enoyldopamine] the “induction of Serca2 gene (mRNA)” value (Serca2 gene; [7]) was “induced the Serca2 gene”.

With COc1ccc2c(c1)c(CC(=O)N1CCOCC1)c(C)n2C(=O)c1ccc(Cl)cc1 [BML-190] the “induction of Serca2 gene (mRNA)” value (Serca2 gene; [8]) was “induction of Serca2 gene was induced”.
